Five test systems from the supplement of paper PMC10331698 can be followed below.

± gives the standard deviation of the averaged measurements.

Common to all, as to assay: level (log10 ratio to DMSO vehicle control); higher = higher biomarker level / cell amount than vehicle control
Common to all, as to settings: in DMSO

Compound in assay [1]: C=C(C)C(=O)OCC(F)(F)C(F)(F)C(F)(F)C(F)(F)C(F)(F)C(F)(F)C(F)(F)F
As to the method: (§1)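 BioMAP Diversity Plus panel of 12 human primary cell co-culture systems (3C, 4H, LPS, SAg, BT, BF4T, BE3C, CASM3C, HDF3CGF, KF3CT, MyoF, Mphg). Compounds were added 1 h before stimulation and left for 24 h (MyoF 48 h; BT 72 h for soluble read-outs or 6 d for IgG). Biomarkers were read by ELISA, cytotoxicity by SRB, PBMC viability and proliferation by Alamar Blue. Each well value was divided by the mean of 8 DMSO control wells on the same plate and log10 transformed; duplicate blinded samples were tested at 4 concentrations.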

Compound in assay [2]: C=CC(=O)OCCC(F)(F)C(F)(F)C(F)(F)C(F)(F)F [2-(Perfluorobutyl)ethyl acrylate]
As for the experimental part:
as §1

Compound in assay [3]: Cn1cnc([N+](=O)[O-])c1Sc1ncnc2[nH]cnc12 [Azathioprine]
As for the experimental part: as §1

Compound in assay [4]: O=C(O)C(F)(F)C(F)(F)C(F)(F)C(F)(F)C(F)(F)C(F)(F)C(F)(F)C(F)(F)C(F)(F)C(F)(F)C(F)(F)C(F)(F)C(F)(F)F [Perfluorotetradecanoic acid]
As to the method: as §1

Compound in assay [5]: O=C(O)C(F)(F)C(F)(F)C(F)(F)C(F)(F)C(F)(F)C(F)(F)C(F)(F)C(F)(F)C(F)(F)C(F)(F)C(F)(F)C(F)(F)F [Perfluorotridecanoic acid]
As for the experimental part:
as §1

Compound in assay [6]: O=C(O)CCC(F)(F)C(F)(F)C(F)(F)F [3:3 Fluorotelomer carboxylic acid]
As to the method:
as §1

On to MyoF:SRB, for which the “level (log10)” value in assay [1] (6700 nM) is -0.0005 ± 0.0021; in assay [1] (20000 nM) it was -0.0065 ± 0.0064; in assay [2] (6700 nM), -0.001 ± 0.0099; in assay [2] (20000 nM), -0.004 ± 0.011; in assay [2] (60000 nM), -0.0085 ± 0.00071; in assay [3] (1400 nM), -0.0055 ± 0.0092. Also, the “level (log10)” value in assay [3] (4200 nM) was 0.0015 ± 0.0021; in assay [3] (13000 nM), 0.0005 ± 0.0035; in assay [3] (38000 nM), -0.015 ± 0.0057; in assay [4] (6700 nM), 0.0025 ± 0.0021; in assay [4] (20000 nM), 0.0055 ± 0.0078; in assay [5] (1500 nM), 0.0015 ± 0.0064. The “level (log10)” value in assay [5] (4400 nM) was 0.002 ± 0.0014; in assay [5] (13000 nM) it was 0.0005 ± 0.0021; in assay [5] (40000 nM) it was 0.002 ± 0.0042; in assay [6] (6700 nM) it was 0.0005 ± 0.0021; in assay [6] (20000 nM), 0 ± 0.0028; in assay [6] (60000 nM), -0.0065 ± 0.012.

For MyoF:TIMP-1, the “level (log10)” value in assay [1] (6700 nM) is 0.0225 ± 0.029; in assay [1] (20000 nM) it was 0.035 ± 0.017; in assay [2] (6700 nM), -0.031 ± 0.048; in assay [2] (20000 nM), 0.0025 ± 0.018; in assay [2] (60000 nM) it was 0.016 ± 0.042; in assay [3] (1400 nM), -0.0225 ± 0.04. Besides, the “level (log10)” value in assay [3] (4200 nM) was -0.056 ± 0.057; in assay [3] (13000 nM) it was 0.013 ± 0.068; in assay [3] (38000 nM), 0.016 ± 0.071; in assay [4] (6700 nM), 0.0075 ± 0.049; in assay [4] (20000 nM), 0.0345 ± 0.013; in assay [5] (1500 nM), 0.004 ± 0.0071. Besides, the “level (log10)” value in assay [5] (4400 nM) was 0.001 ± 0.011; in assay [5] (13000 nM), 0.025 ± 0.0028; in assay [5] (40000 nM), 0.0325 ± 0.0064; in assay [6] (6700 nM), -0.053 ± 0.067; in assay [6] (20000 nM), -0.033 ± 0.059; in assay [6] (60000 nM), -0.0275 ± 0.074.

Regarding MyoF:alpha-SM Actin, the “level (log10)” value was 0.0085 ± 0.022 in assay [1] (6700 nM); -0.0005 ± 0.0092 in assay [1] (20000 nM); -0.0075 ± 0.0078 in assay [2] (6700 nM); -0.0325 ± 0.00071 in assay [2] (20000 nM); -0.0665 ± 0.00071 in assay [2] (60000 nM); 0.037 ± 0.095 in assay [3] (1400 nM). In addition, the “level (log10)” value in assay [3] (4200 nM) is 0.039 ± 0.071; in assay [3] (13000 nM), 0.002 ± 0.078; in assay [3] (38000 nM) it was -0.0365 ± 0.1; in assay [4] (6700 nM), -0.008; in assay [4] (20000 nM), -0.032 ± 0.0085; in assay [5] (1500 nM), 0.038 ± 0.067. Further, the “level (log10)” value is 0.041 ± 0.11 in assay [5] (4400 nM); 0.023 ± 0.086 in assay [5] (13000 nM); 0.0055 ± 0.09 in assay [5] (40000 nM); -0.011 ± 0.045 in assay [6] (6700 nM); 0.002 ± 0.023 in assay [6] (20000 nM); -0.0055 ± 0.013 in assay [6] (60000 nM).

For MyoF:bFGF, the “level (log10)” value in assay [1] (6700 nM) was 0.005 ± 0.016; in assay [1] (20000 nM) it was 0.015 ± 0.025; in assay [2] (6700 nM), -0.0035 ± 0.0021; in assay [2] (20000 nM), -0.003 ± 0.0042; in assay [2] (60000 nM) it was 0.02 ± 0.011; in assay [3] (1400 nM), 0.001 ± 0.016. For the same test system, the “level (log10)” value is 0.003 ± 0.0071 in assay [3] (4200 nM); -0.015 ± 0.016 in assay [3] (13000 nM); 0.01 ± 0.0071 in assay [3] (38000 nM); 0.0075 ± 0.00071 in assay [4] (6700 nM); 0.0315 ± 0.018 in assay [4] (20000 nM); 0.005 ± 0.04 in assay [5] (1500 nM). Moreover, the “level (log10)” value came to 0.017 ± 0.028 in assay [5] (4400 nM); 0.0045 ± 0.04 in assay [5] (13000 nM); 0.015 ± 0.0085 in assay [5] (40000 nM); 0.0025 ± 0.0021 in assay [6] (6700 nM); 0.0025 ± 0.0092 in assay [6] (20000 nM); 0.0085 ± 0.0092 in assay [6] (60000 nM).

lMphg:CCL2/MCP-1: the “level (log10)” value in assay [1] (6700 nM) was -0.009 ± 0.021; in assay [1] (20000 nM), 0.008 ± 0.02; in assay [2] (6700 nM) it was -0.0335 ± 0.0078; in assay [2] (20000 nM), -0.0445 ± 0.0078; in assay [2] (60000 nM), -0.012 ± 0.04; in assay [3] (1400 nM), 0.0055 ± 0.025. Also, the “level (log10)” value in assay [3] (4200 nM) was -0.0005 ± 0.0092; in assay [3] (13000 nM), -0.0315 ± 0.0078; in assay [3] (38000 nM), -0.0755 ± 0.011; in assay [4] (6700 nM) it was -0.013 ± 0.014; in assay [4] (20000 nM), -0.004 ± 0.0099; in assay [5] (1500 nM), -0.0115 ± 0.018. Besides, the “level (log10)” value is 0.001 ± 0.017 in assay [5] (4400 nM); -0.004 ± 0.023 in assay [5] (13000 nM); 0.0275 ± 0.028 in assay [5] (40000 nM); -0.012 ± 0.02 in assay [6] (6700 nM); -0.01 ± 0.018 in assay [6] (20000 nM); 0.017 ± 0.02 in assay [6] (60000 nM).
